From patent publication US10040798B2, “Pyrrolopyridazine inhibitors of IRAK4 activity” (MERCK SHARP & DOHME CORP., priority 2015, dated 2018)
pIC50: −log10 of the molar value. Counter-ions that a name gives are not always drawn.

These compounds were tested against IRAK4 (Homo sapiens (Human), UniProt Q9NWZ3) (assay: IRAK4 Kinase Assay (IMAP fluorescence polarization)). Conditions: 0.5 nM GST tagged IRAK4, 100 μM ATP, 30 minutes at 25° C., IMAP FP.
Format: biochemical
Description: The kinase activity of IRAK4 is determined by its ability to catalyze the phosphorylation of a fluorescent polypeptide substrate. The extent of phosphorylation is measured using the IMAP technology (Molecular Devices) where the phosphorylated fluorescent substrate binds to the large M (III)-based nanoparticles which reduces the rotational speed of the substrate and thus increases its fluorescent polarization (FP).
20 μL reaction mixture contains 10 mM TriHCl, pH 7.2, 0.5 nM GST tagged IRAK4 (SignalChem), 100 nM fluorescent peptide substrate (RP7030, Molecular Devices), 100 μM ATP, 1 mM DDT, 1 mM MgCl2, and 0.01% Tween 20. The reaction is initiated by the addition of ATP. After incubation for 30 minutes at 25° C., 60 μL of Progressive IMAP Reagent (Molecular Devices) is added to stop the reaction. Change in RP7030's FP is determined by a FP reader (Analyst HT, LJL BioSystems).

Sequence of IRAK4 (Q9NWZ3 whole entry): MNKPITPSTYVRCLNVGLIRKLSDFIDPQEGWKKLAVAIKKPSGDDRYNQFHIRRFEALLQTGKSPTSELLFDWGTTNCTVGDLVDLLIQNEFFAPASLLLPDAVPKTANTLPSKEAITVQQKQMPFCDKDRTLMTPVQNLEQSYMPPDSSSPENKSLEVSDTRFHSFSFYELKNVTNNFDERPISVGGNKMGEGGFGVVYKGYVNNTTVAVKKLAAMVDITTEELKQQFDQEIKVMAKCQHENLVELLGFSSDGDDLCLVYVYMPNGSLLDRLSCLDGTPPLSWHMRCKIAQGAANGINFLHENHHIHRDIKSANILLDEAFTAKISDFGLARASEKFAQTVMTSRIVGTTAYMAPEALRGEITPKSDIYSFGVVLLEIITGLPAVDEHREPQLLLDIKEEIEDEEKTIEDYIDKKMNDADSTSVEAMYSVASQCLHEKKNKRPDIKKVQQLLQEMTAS

SMILES	pIC50
Cn1cc(NC(=O)c2ccc3ccc(N4CCCNCC4)nn23)c(Cl)n1 [Example 23, N-(3-chloro-1-methyl-1H-pyrazol-4-yl)-2-(1,4-diazepan-1-yl)pyrrolo[1,2-b]pyridazine-7-carboxamide trifluoroacetate]	7.70
Cn1cc(NC(=O)c2ccc3ccc(NC4CCCCNC4)nn23)c(C(F)F)n1 (centres unmarked) [Example 24, 2-(azepan-3-ylamino)-N-[3-(difluoromethyl)-1-methyl-1H-pyrazol-4-yl]pyrrolo[1,2-b]pyridazine-7-carboxamide trifluoroacetate]	8.70
Cn1cc(NC(=O)c2ccc3ccc(N[C@@H]4CCCC[C@@H]4N)nn23)c(Cl)n1 [Example 25, 2-{[(1R,2S)-2-aminocyclohexyl]amino}-N-(3-chloro-1-methyl-1H-pyrazol-4-yl)pyrrolo[1,2-b]pyridazine-7-carboxamide trifluoroacetate]	9.00
Cn1cc(NC(=O)c2ccc3ccc(N4CC5CCC4CN5)nn23)c(Cl)n1 (centres unmarked) [Example 26, N-(3-chloro-1-methyl-1H-pyrazol-4-yl)-2-(2,5-diazabicyclo[2.2.2]oct-2-yl)pyrrolo[1,2-b]pyridazine-7-carboxamide trifluoroacetate]	7.55
Cn1cc(NC(=O)c2ccc3ccc(N4CC5CCC4CN5)nn23)c(Br)n1 (centres unmarked) [Example 27, N-(3-bromo-1-methyl-1H-pyrazol-4-yl)-2-(2,5-diazabicyclo[2.2.2]oct-2-yl)pyrrolo[1,2-b]pyridazine-7-carboxamide trifluoroacetate]	7.62
Cn1cc(NC(=O)c2ccc3ccc(N[C@@H]4CCCC(F)(F)[C@@H]4N)nn23)c(C(F)F)n1 [Example 28, 2-{[(1R,2R)-2-amino-3,3-difluorocyclohexyl]amino}-N-[3-(difluoromethyl)-1-methyl-1H-pyrazol-4-yl]pyrrolo[1,2-b]pyridazine-7-carboxamide trifluoroacetate]	7.47
Cn1cc(NC(=O)c2ccc3ccc(N[C@@H]4CCCC[C@@H]4N)nn23)c(C#N)n1 [Example 29, 2-{[(1R,2S)-2-aminocyclohexyl]amino}-N-(3-cyano-1-methyl-1H-pyrazol-4-yl)pyrrolo[1,2-b]pyridazine-7-carboxamide trifluoroacetate]	9.15
Cn1cc(NC(=O)c2ccc3ccc(N4CCCNCC4)nn23)c(C#N)n1 [Example 30, N-(3-cyano-1-methyl-1H-pyrazol-4-yl)-2-(1,4-diazepan-1-yl)pyrrolo[1,2-b]pyridazine-7-carboxamide trifluoroacetate]	7.57
Cn1cc(NC(=O)c2ccc3ccc(N4CC5CCC4CN5)nn23)c(C#N)n1 (centres unmarked) [Example 31, N-(3-cyano-1-methyl-1H-pyrazol-4-yl)-2-(2,5-diazabicyclo[2.2.2]oct-2-yl)pyrrolo[1,2-b]pyridazine-7-carboxamide trifluoroacetate]	7.60
Cn1cc(NC(=O)c2ccc3ccc(N[C@@H]4CCCC(F)(F)[C@@H]4N)nn23)c(Br)n1 [Example 32, 2-{[(1R,2R)-2-amino-3,3-difluoro-cyclohexyl]amino}-N-(3-bromo-1-methyl-1H-pyrazol-4-yl)pyrrolo[1,2-b]pyridazine-7-carboxamide trifluoroacetate]	6.56
Cn1ncc(NC(=O)c2ccc3ccc(N[C@@H]4CCCC[C@@H]4N)nn23)c1C(F)(F)F [Example 45, 2-{[(1R,2S)-2-aminocyclohexyl]amino}-N-[1-methyl-5-(trifluoromethyl)-1H-pyrazol-4-yl]pyrrolo[1,2-b]pyridazine-7-carboxamide trifluoroacetate]	6.87
Cn1cc(NC(=O)c2ccc3ccc(N4CC5CCC(C4)N5)nn23)c(C(F)F)n1 [Example 46, 2-(3,8-diazabicyclo[3.2.1]oct-3-yl)-N-[3-(difluoromethyl)-1-methyl-1H-pyrazol-4-yl]pyrrolo[1,2-b]pyridazine-7-carboxamide trifluoroacetate]	9.00
Cn1cc(NC(=O)c2ccc3ccc(N4CC5CCC(C4)N5)nn23)c(C(F)(F)F)n1 [Example 47, 2-(3,8-diazabicyclo[3.2.1]oct-3-yl)-N-[1-methyl-3-(trifluoromethyl)-1H-pyrazol-4-yl]pyrrolo[1,2-b]pyridazine-7-carboxamide trifluoroacetate]	8.05
Cn1cc(NC(=O)c2ccc3ccc(N[C@@H]4CCCC(F)(F)[C@@H]4N)nn23)c(Cl)n1 [Example 48, 2-{[(1R,2R)-2-amino-3,3-difluoro-cyclohexyl]amino}-N-(3-chloro-1-methyl-1H-pyrazol-4-yl)pyrrolo[1,2-b]pyridazine-7-carboxamide acetate]	6.86
Cn1cc(NC(=O)c2ccc3ccc(N[C@@H]4CCCC(F)(F)[C@@H]4N)nn23)c(C#N)n1 [Example 52, 2-{[(1R,2R)-2-amino-3,3-difluoro-cyclohexyl]amino}-N-(3-cyano-1-methyl-1H-pyrazol-4-yl)pyrrolo[1,2-b]pyridazine-7-carboxamide trifluoroacetate]	7.37
Cn1cc(NC(=O)c2ccc3ccc(N[C@@H]4CCCC[C@@H]4O)nn23)c(Cl)n1 [Example 53, N-(3-chloro-1-methyl-1H-pyrazol-4-yl)-2-{[(1R,2S)-2-hydroxycyclohexyl]amino}pyrrolo[1,2-b]pyridazine-7-carboxamide trifluoroacetate]	7.26
CC(C)(C)n1cc(NC(=O)c2ccc3ccc(N[C@@H]4CCCC[C@@H]4O)nn23)c(C(F)F)n1 [Example 54, N-[1-tert-butyl-3-(difluoromethyl)-1H-pyrazol-4-yl]-2-{[(1R,2S)-2-hydroxycyclohexyl]amino}pyrrolo[1,2-b]pyridazine-7-carboxamide trifluoroacetate]	6.19
CC(C)n1cc(NC(=O)c2ccc3ccc(N[C@@H]4CCCC[C@@H]4O)nn23)c(C(F)F)n1 [Example 55, N-[3-(difluoromethyl)-1-(1-methylethyl)-1H-pyrazol-4-yl]-2-{[(1R,2S)-2-hydroxycyclohexyl]amino}pyrrolo[1,2-b]pyridazine-7-carboxamide trifluoroacetate]	7.28
O=C(Nc1cscc1C(F)F)c1ccc2ccc(N3CC4CCC3CN4)nn12 (centres unmarked) [Example 56, 2-(2,5-diazabicyclo[2.2.2]oct-2-yl)-N-[4-(difluoromethyl)thiophen-3-yl]pyrrolo[1,2-b]pyridazine-7-carboxamide trifluoroacetate]	7.02
O=C(Nc1ccccc1Br)c1ccc2ccc(N3CCCNCC3)nn12 [Example 57, N-(2-bromophenyl)-2-(1,4-diazepan-1-yl)pyrrolo[1,2-b]pyridazine-7-carboxamide trifluoroacetate]	5.40
N[C@H]1CCCC[C@H]1Nc1ccc2ccc(C(=O)Nc3ccccc3Br)n2n1 [Example 58, 2-{[(1R,2S)-2-aminocyclohexyl]amino}-N-(2-bromo-phenyl)pyrrolo[1,2-b]pyridazine-7-carboxamide trifluoroacetate]	7.96
O=C(Nc1ccccc1Cl)c1ccc2ccc(N3CCCNCC3)nn12 [Example 59, N-(2-chlorophenyl)-2-(1,4-diazepan-1-yl)pyrrolo[1,2-b]pyridazine-7-carboxamide trifluoroacetate]	5.92
O=C(Nc1cscc1Br)c1ccc2ccc(N3CCCNCC3)nn12 [Example 60, N-(4-bromothiophen-3-yl)-2-(1,4-diazepan-1-yl)pyrrolo[1,2-b]pyridazine-7-carboxamide trifluoroacetate]	6.26
